Columns and labels:
Assay type in all cases: functional
[1] = target: T1, Alpha-2B adrenergic receptor (Homo sapiens) (UniProt P18089); assay: Agonist activity at recombinant human alpha-2b adrenergic receptor at 10 uM by GTPgamma[35S] binding-based assay relative to agonist
T1 sequence (whole entry): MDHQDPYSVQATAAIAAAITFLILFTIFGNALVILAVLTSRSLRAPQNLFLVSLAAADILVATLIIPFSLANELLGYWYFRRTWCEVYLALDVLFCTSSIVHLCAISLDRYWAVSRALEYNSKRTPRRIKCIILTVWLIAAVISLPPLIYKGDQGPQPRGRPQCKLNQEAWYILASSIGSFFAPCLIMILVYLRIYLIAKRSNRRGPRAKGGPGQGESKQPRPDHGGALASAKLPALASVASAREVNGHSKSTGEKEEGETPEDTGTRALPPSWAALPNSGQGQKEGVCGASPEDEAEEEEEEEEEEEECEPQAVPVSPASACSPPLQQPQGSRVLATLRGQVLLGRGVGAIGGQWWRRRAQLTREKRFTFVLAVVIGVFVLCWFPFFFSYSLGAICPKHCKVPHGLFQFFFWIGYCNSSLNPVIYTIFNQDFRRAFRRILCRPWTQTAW

[2] = target: Cannabinoid receptor 1 (Homo sapiens) (UniProt P21554); assay: Antagonist activity at recombinant human CB1 receptor assessed as inhibition of agonist-induced cAMP induction at 10 uM by HTRF assay
[3] = target: 5-hydroxytryptamine receptor 2B (Homo sapiens) (UniProt P41595); assay: Antagonist activity at recombinant human 5-HT2B assessed as inhibition of agonist-induced effect at 10 uM by aequorin reporter based assay
[4] = target: 5-hydroxytryptamine receptor 6 (Homo sapiens) (UniProt P50406); assay: Agonist activity at recombinant human 5-HT6R assessed as induction of cAMP levels at 10 uM by HTRF assay relative to agonist
[5] = target: T2, Type-1 angiotensin II receptor (Homo sapiens) (UniProt P30556); assay: Agonist activity at recombinant human AT1 receptor […] at 10 uM by aequorin reporter based assay relative to agonist
T2 sequence (whole entry): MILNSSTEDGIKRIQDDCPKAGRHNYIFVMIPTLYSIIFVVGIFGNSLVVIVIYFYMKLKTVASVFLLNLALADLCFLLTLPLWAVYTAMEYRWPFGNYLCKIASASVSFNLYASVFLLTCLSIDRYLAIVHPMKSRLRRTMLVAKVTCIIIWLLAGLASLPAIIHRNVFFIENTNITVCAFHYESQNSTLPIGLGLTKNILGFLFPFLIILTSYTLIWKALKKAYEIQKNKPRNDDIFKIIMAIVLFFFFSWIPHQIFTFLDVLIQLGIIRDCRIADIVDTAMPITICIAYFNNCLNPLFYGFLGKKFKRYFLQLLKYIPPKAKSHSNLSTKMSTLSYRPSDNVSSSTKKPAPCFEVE

[6] = target: Histamine H2 receptor (Homo sapiens) (UniProt P25021); assay: Antagonist activity at recombinant human histamine H2 receptor assessed as inhibition of agonist-induced cAMP levels at 10 uM by HTRF assay
[7] = target: Substance-P receptor (Homo sapiens) (UniProt P25103); assay: Antagonist activity at recombinant human NK1R assessed as inhibition of agonist-induced effect at 10 uM by aequorin reporter based assay
[8] = target: T3, Muscarinic acetylcholine receptor M4 (Homo sapiens) (UniProt P08173); assay: Antagonist activity at human muscarinic M4 receptor assessed as inhibition of agonist-induced effect at 10 uM by GTPgamma[35S] binding-based assay
T3 sequence (whole entry): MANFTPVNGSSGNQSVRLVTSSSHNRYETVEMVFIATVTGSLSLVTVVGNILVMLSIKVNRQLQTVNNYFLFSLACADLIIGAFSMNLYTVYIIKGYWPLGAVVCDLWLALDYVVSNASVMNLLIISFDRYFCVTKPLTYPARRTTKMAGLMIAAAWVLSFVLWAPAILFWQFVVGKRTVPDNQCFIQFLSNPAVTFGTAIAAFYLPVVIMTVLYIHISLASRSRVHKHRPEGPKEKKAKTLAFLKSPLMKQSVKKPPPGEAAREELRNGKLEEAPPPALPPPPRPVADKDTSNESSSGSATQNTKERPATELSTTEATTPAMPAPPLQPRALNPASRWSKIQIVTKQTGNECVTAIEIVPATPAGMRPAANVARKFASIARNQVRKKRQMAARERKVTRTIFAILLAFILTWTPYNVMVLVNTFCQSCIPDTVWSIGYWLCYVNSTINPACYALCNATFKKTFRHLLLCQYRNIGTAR

[9] = target: T4, Alpha-1A adrenergic receptor (Homo sapiens) (UniProt P35348); assay: Agonist activity at recombinant human alpha-1a adrenergic receptor […] at 10 uM by aequorin reporter based assay relative to agonist
T4 sequence (whole entry): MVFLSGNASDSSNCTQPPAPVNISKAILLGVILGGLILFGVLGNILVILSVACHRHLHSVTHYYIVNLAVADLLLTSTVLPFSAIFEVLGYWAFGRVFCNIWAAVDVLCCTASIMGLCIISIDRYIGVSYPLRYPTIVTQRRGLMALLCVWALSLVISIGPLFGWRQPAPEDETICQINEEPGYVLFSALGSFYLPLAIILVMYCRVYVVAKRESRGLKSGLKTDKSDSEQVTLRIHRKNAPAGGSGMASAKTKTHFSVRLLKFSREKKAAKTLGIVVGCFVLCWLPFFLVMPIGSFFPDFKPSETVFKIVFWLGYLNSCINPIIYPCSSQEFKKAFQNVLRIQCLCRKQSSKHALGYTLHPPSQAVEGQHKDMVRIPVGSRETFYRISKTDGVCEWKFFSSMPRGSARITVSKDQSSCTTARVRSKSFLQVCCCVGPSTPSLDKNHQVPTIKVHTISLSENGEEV

[10] = target: T5, Adenosine receptor A1 (Homo sapiens) (UniProt P30542); assay: Agonist activity at recombinant human adenosine A1 receptor […] at 10 uM by HTRF assay relative to agonist
T5 sequence (whole entry): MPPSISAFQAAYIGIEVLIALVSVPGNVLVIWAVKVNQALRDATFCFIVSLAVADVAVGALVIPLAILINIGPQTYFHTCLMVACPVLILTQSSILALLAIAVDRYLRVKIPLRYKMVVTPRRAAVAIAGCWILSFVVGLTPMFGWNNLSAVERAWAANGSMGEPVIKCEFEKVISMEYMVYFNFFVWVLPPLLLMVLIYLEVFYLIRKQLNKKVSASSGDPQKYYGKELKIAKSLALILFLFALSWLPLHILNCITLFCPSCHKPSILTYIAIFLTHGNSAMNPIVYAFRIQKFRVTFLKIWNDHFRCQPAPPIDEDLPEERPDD

[11] = target: Muscarinic acetylcholine receptor M3 (Homo sapiens) (UniProt P20309); assay: Agonist activity at recombinant human muscarinic M3 receptor at 10 uM by aequorin reporter based assay relative to agonist
[12] = target: 5-hydroxytryptamine receptor 7 (Homo sapiens) (UniProt P34969); assay: Antagonist activity at recombinant human 5-HT7R assessed as inhibition of agonist-induced cAMP induction at 10 uM by HTRF assay
Chain of 5-hydroxytryptamine receptor 7 (Homo sapiens) (P34969 whole entry): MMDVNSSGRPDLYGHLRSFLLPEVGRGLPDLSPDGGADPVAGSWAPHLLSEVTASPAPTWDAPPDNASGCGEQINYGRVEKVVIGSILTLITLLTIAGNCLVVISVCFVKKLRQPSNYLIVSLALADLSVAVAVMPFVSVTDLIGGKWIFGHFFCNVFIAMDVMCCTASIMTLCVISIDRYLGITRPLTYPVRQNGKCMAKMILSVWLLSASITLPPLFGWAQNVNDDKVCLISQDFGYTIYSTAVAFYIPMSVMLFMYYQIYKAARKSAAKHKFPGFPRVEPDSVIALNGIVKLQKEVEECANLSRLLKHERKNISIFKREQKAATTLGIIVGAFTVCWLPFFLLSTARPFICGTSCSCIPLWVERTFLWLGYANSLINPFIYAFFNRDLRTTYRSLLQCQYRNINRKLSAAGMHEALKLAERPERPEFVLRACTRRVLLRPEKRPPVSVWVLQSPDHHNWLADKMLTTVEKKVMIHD

Chain of Muscarinic acetylcholine receptor M3 (Homo sapiens) (P20309 whole entry, looked up): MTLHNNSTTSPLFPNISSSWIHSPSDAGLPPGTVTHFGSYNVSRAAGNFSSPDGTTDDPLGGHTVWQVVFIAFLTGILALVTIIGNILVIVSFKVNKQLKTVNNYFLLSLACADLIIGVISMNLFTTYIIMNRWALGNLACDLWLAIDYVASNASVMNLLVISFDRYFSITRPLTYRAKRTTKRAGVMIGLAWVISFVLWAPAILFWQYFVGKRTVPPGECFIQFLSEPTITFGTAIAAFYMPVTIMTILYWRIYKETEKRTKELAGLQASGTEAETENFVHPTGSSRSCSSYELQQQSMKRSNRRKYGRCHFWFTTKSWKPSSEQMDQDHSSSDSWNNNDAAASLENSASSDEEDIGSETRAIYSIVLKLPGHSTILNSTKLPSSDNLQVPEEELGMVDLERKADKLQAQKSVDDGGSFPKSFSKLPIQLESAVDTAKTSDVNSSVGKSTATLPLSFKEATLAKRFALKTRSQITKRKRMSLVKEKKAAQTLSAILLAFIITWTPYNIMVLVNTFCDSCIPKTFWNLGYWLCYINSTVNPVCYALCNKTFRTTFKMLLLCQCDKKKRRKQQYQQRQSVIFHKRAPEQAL
Chain of 5-hydroxytryptamine receptor 2B (Homo sapiens) (P41595 whole entry): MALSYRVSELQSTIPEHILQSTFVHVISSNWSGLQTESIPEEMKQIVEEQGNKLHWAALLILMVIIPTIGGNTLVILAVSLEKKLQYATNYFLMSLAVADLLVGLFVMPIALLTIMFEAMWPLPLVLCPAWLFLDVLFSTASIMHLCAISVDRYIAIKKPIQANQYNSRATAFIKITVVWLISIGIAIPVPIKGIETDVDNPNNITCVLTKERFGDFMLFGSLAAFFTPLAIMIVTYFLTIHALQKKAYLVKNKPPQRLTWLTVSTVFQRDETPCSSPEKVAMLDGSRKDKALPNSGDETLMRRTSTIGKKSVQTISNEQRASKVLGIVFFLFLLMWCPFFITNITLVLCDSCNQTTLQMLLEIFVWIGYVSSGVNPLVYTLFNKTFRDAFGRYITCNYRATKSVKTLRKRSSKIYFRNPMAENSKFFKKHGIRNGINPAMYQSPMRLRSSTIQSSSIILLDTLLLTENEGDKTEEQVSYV
Chain of Histamine H2 receptor (Homo sapiens) (P25021 whole entry): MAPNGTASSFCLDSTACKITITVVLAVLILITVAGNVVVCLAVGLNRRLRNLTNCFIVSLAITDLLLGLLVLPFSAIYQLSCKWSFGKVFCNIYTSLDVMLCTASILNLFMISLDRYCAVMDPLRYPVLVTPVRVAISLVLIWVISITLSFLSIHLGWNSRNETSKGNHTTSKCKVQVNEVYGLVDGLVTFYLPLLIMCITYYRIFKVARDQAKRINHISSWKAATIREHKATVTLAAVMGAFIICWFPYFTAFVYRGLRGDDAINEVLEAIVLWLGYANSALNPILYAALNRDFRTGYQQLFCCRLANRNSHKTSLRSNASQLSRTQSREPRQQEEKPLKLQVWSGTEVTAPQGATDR
Chain of Substance-P receptor (Homo sapiens) (P25103 whole entry): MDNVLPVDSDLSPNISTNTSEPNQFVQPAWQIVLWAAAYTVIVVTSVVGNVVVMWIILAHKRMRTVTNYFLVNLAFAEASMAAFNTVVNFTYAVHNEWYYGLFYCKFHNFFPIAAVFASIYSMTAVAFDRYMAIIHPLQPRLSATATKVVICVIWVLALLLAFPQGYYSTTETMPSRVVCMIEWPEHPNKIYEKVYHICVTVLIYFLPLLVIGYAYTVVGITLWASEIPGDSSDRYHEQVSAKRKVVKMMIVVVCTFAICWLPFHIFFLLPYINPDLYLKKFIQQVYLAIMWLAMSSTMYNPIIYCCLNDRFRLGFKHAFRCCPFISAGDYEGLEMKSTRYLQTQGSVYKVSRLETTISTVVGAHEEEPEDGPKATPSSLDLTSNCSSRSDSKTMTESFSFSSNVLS
Chain of 5-hydroxytryptamine receptor 6 (Homo sapiens) (P50406 whole entry): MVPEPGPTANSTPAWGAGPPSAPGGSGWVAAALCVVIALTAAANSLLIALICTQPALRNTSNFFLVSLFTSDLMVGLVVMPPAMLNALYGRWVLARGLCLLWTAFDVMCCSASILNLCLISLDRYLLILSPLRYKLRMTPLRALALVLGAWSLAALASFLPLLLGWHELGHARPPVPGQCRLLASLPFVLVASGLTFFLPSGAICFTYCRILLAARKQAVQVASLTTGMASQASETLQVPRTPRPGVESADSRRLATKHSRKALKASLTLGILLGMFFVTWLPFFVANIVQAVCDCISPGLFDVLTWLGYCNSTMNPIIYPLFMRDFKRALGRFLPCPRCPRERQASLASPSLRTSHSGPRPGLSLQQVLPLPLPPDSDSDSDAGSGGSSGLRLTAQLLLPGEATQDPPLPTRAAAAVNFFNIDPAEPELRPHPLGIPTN
Chain of Cannabinoid receptor 1 (Homo sapiens) (P21554 whole entry): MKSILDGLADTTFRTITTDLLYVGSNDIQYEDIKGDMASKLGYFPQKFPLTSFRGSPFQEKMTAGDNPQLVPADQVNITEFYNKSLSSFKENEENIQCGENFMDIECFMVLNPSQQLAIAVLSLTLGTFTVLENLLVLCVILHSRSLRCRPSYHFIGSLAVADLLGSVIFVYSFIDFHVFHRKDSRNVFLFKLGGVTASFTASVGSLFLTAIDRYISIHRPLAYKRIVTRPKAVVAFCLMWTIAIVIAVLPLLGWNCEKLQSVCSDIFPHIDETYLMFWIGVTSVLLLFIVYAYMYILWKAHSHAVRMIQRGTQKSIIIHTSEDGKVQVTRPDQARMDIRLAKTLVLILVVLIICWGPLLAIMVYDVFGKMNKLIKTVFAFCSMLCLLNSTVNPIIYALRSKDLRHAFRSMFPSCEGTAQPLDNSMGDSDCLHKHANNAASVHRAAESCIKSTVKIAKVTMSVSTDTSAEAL

Activity [1] [%] | inhibition [2] [%] | inhibition [3] [%] | Activity [4] [%] | Activity [5] [%] | inhibition [6] [%] | inhibition [7] [%] | inhibition [8] [%] | Activity [9] [%] | Activity [10] [%] | Activity [11] [%] | inhibition [12] [%] | SMILES
2 | 5 | 26 | 34 | 0 | 2 | 21 | -7 | 0 | -9 | -2 | – | CN(CCCNC(=O)c1ccc([N+](=O)[O-])cc1)Cc1ccccc1
1 | 5 | 58 | 14 | 0 | 7 | 3 | 19 | 0 | -3 | 2 | -1 | CN(CCCNC(=O)c1ccc(Cl)cc1)Cc1ccccc1
-4 | -8 | 16 | -4 | 0 | 15 | 4 | 25 | 0 | -3 | 1 | -5 | COc1ccc(C(=O)NCCCN(C)Cc2ccccc2)cc1
-2 | 4 | 75 | 35 | 0 | 8 | 34 | 33 | 0 | -3 | -2 | 2 | CCCc1ccc(C(=O)NCCCN(C)Cc2ccccc2)cc1

More lines, now with the values behind:

SMILES | Activity [1] [%] | inhibition [2] [%] | inhibition [3] [%] | Activity [4] [%] | Activity [5] [%] | inhibition [6] [%] | inhibition [7] [%] | inhibition [8] [%] | Activity [9] [%] | Activity [10] [%] | Activity [11] [%] | inhibition [12] [%]
CN(CCNC(=O)c1ccc([N+](=O)[O-])cc1)Cc1ccccc1 | -4 | – | 35 | -4 | 0 | 21 | 18 | 26 | 0 | 0 | 0 | -2
COc1cccc(C(=O)NCCCN(C)Cc2ccccc2)c1 | -1 | -5 | 26 | -2 | 0 | 16 | 10 | 21 | 0 | -6 | 0 | -3
CN(CCNC(=O)c1ccc(C#N)cc1)Cc1ccccc1 | -5 | – | 16 | -9 | 0 | 25 | 14 | 25 | 0 | 1 | 0 | -2
CN(CCCNC(=O)c1cccc(Br)c1)Cc1ccccc1 | -4 | 3 | 78 | 32 | 0 | 9 | 58 | 33 | 0 | -12 | -2 | -4
CN(CCCNC(=O)c1ccc(Br)cc1)Cc1ccccc1 | 1 | -2 | 37 | 4 | 1 | 6 | 4 | 20 | 1 | -8 | 1 | 0
CN(CCCNC(=O)c1ccc(Cl)cc1)CCc1ccccc1 | 0 | 1 | 92 | 16 | 0 | 4 | 41 | 18 | 0 | -13 | -1 | –
CN(CCCNC(=O)c1ccc(C(F)(F)F)cc1)Cc1ccccc1 | 2 | 10 | 66 | 28 | 0 | 6 | 33 | 23 | 0 | -4 | -2 | -9
CN(CCNC(=O)c1ccc(Cl)cc1)Cc1ccccc1 | -1 | 4 | 66 | 27 | 0 | 13 | 22 | 13 | 0 | -11 | 0 | –
